Values after ≈ are worked out from the molar mass of the structure shown.
Experiments:
Staphylococcus aureus [1] = assay: Antibacterial activity against Staphylococcus aureus ATCC 6538 after 24 hrs by microdilution method; type: functional; settings: ATCC 6538, 24 h
Bacillus cereus [2] = assay: Antibacterial activity against Bacillus cereus clinical isolate after 24 hrs by microdilution method; type: functional
Micrococcus flavus [3] = assay: Antibacterial activity against Micrococcus flavus ATCC 10240 after 24 hrs by microdilution method; type: functional; settings: ATCC 10240, 24 h
Listeria monocytogenes [4] = assay: Antibacterial activity against Listeria monocytogenes NCTC 7973 after 24 hrs by microdilution method; type: functional; settings: NCTC 7973, 24 h
Staphylococcus aureus [5] = assay: Bactericidal activity against Staphylococcus aureus ATCC 6538 after 72 hrs by microdilution method; type: functional
Bacillus cereus [6] = assay: Bactericidal activity against Bacillus cereus clinical isolate after 72 hrs by microdilution method; type: functional
Micrococcus flavus [7] = assay: Bactericidal activity against Micrococcus flavus ATCC 10240 after 72 hrs by microdilution method; type: functional
Listeria monocytogenes [8] = assay: Bactericidal activity against Listeria monocytogenes NCTC 7973 after 72 hrs by microdilution method; type: functional
Pseudomonas aeruginosa [9] = assay: Antibacterial activity against Pseudomonas aeruginosa ATCC 27853 after 24 hrs by microdilution method; type: functional; settings: ATCC 27853, 24 h
Salmonella typhimurium [10] = assay: Antibacterial activity against Salmonella typhimurium ATCC 13311 after 24 hrs by microdilution method; type: functional, Salmonella enterica subsp. enterica serovar Typhimurium; settings: Salmonella enterica, ATCC 13311, 24 h
Escherichia coli [11] = assay: Antibacterial activity against Escherichia coli ATCC 35210 after 24 hrs by microdilution method; type: functional; settings: ATCC 35210, 24 h
Enterobacter cloacae [12] = assay: Antibacterial activity against Enterobacter cloacae ATCC 35030 isolated from human after 24 hrs by microdilution method; type: functional; settings: ATCC 35030, 24 h
Pseudomonas aeruginosa [13] = assay: Bactericidal activity against Pseudomonas aeruginosa ATCC 27853 after 72 hrs by microdilution method; type: functional
Salmonella typhimurium [14] = assay: Bactericidal activity against Salmonella typhimurium ATCC 13311 after 72 hrs by microdilution method; type: functional, Salmonella enterica subsp. enterica serovar Typhimurium
Escherichia coli [15] = assay: Bactericidal activity against Escherichia coli ATCC 35210 after 72 hrs by microdilution method; type: functional
Enterobacter cloacae [16] = assay: Bactericidal activity against Enterobacter cloacae ATCC 35030 isolated from human after 72 hrs by microdilution method; type: functional
Aspergillus ochraceus [17] = assay: Antifungal activity against Aspergillus ochraceus ATCC 12066 after 72 hrs by microdilution method; type: functional; settings: ATCC 12066, 72 h
Aspergillus versicolor [18] = assay: Antifungal activity against Aspergillus versicolor ATCC 11730 after 72 hrs by microdilution method; type: functional; settings: ATCC 11730, 72 h
Aspergillus niger [19] = assay: Antifungal activity against Aspergillus niger ATCC 6275 after 72 hrs by microdilution method; type: functional; settings: ATCC 6275, 72 h
Aspergillus fumigatus [20] = assay: Antifungal activity against Aspergillus fumigatus isolated from human after 72 hrs by microdilution method; type: functional
Aspergillus ochraceus [21] = assay: Fungicidal activity against Aspergillus ochraceus ATCC 12066 after 72 hrs by microdilution method; type: functional
Aspergillus versicolor [22] = assay: Fungicidal activity against Aspergillus versicolor ATCC 11730 after 72 hrs by microdilution method; type: functional
Aspergillus niger [23] = assay: Fungicidal activity against Aspergillus niger ATCC 6275 after 72 hrs by microdilution method; type: functional
Aspergillus fumigatus [24] = assay: Fungicidal activity against Aspergillus fumigatus isolated from human after 72 hrs by microdilution method; type: functional
Trichoderma viride [25] = assay: Antifungal activity against Trichoderma viride IAM 5061 after 72 hrs by microdilution method; type: functional; settings: IAM 5061, 72 h
Penicillium ochrochloron [26] = assay: Antifungal activity against Penicillium ochrochloron ATCC 9112 after 72 hrs by microdilution method; type: functional; settings: ATCC 9112, 72 h
Talaromyces funiculosus [27] = assay: Antifungal activity against Penicillium funiculosum ATCC 36839 after 72 hrs by microdilution method; type: functional; settings: ATCC 36839, 72 h
Candida albicans [28] = assay: Antifungal activity against Candida albicans ATCC 10231 isolated from human after 72 hrs by microdilution method; type: functional; settings: ATCC 10231, 72 h
Trichoderma viride [29] = assay: Fungicidal activity against Trichoderma viride IAM 5061 after 72 hrs by microdilution method; type: functional
Penicillium ochrochloron [30] = assay: Fungicidal activity against Penicillium ochrochloron ATCC 9112 after 72 hrs by microdilution method; type: functional
Talaromyces funiculosus [31] = assay: Fungicidal activity against Penicillium funiculosum ATCC 36839 after 72 hrs by microdilution method; type: functional
Candida albicans [32] = assay: Fungicidal activity against Candida albicans ATCC 10231 isolated from human after 72 hrs by microdilution method; type: functional

Row | Compound | MIC (Staphylococcus aureus [1]) [µM] | MIC (Bacillus cereus [2]) [µM] | MIC (Micrococcus flavus [3]) [µM] | MIC (Listeria monocytogenes [4]) [µM] | MBC99.5 (Staphylococcus aureus [5]) [×10⁻² umol/ml] | MBC99.5 (Bacillus cereus [6]) [×10⁻² umol/ml] | MBC99.5 (Micrococcus flavus [7]) [×10⁻² umol/ml] | MBC99.5 (Listeria monocytogenes [8]) [×10⁻² umol/ml] | MIC (Pseudomonas aeruginosa [9]) [µM] | MIC (Salmonella typhimurium [10]) [µM] | MIC (Escherichia coli [11]) [µM] | MIC (Enterobacter cloacae [12]) [µM] | MBC99.5 (Pseudomonas aeruginosa [13]) [×10⁻² umol/ml] | MBC99.5 (Salmonella typhimurium [14]) [×10⁻² umol/ml] | MBC99.5 (Escherichia coli [15]) [×10⁻² umol/ml] | MBC99.5 (Enterobacter cloacae [16]) [×10⁻² umol/ml] | MIC (Aspergillus ochraceus [17]) [µM] | MIC (Aspergillus versicolor [18]) [µM] | MIC (Aspergillus niger [19]) [µM] | MIC (Aspergillus fumigatus [20]) [µM] | further results
1 | Cc1nc(-c2ccccc2)sc1C1=NN(c2ccccc2)C(c2ccccc2)C1 (stereo not given) | 126 (≈ 49.8 µg/mL) | 152 (≈ 60.1 µg/mL) | 126 (≈ 49.8 µg/mL) | 76 (≈ 30.1 µg/mL) | 20.2 | 30.4 | 20.2 | 10.1 | 152 (≈ 60.1 µg/mL) | 202 (≈ 79.9 µg/mL) | 101 (≈ 39.9 µg/mL) | 126 (≈ 49.8 µg/mL) | 25.3 | 25.3 | 17.7 | 17.7 | 126 (≈ 49.8 µg/mL) | 126 (≈ 49.8 µg/mL) | 253 (≈ 100 µg/mL) | 126 (≈ 49.8 µg/mL) | MFC99.5 (Aspergillus ochraceus [21]): 20.2 ×10⁻² umol/ml; MFC99.5 (Aspergillus versicolor [22]): 15.2 ×10⁻² umol/ml; MFC99.5 (Aspergillus niger [23]): 32.2 ×10⁻² umol/ml; MFC99.5 (Aspergillus fumigatus [24]): 15.2 ×10⁻² umol/ml; MIC (Trichoderma viride [25]): 126 µM (≈ 49.8 µg/mL); MIC (Penicillium ochrochloron [26]): 253 µM (≈ 100 µg/mL); MIC (Talaromyces funiculosus [27]): 253 µM (≈ 100 µg/mL); MIC (Candida albicans [28]): 253 µM (≈ 100 µg/mL); MFC99.5 (Trichoderma viride [29]): 25.3 ×10⁻² umol/ml; MFC99.5 (Penicillium ochrochloron [30]): 32.2 ×10⁻² umol/ml; MFC99.5 (Talaromyces funiculosus [31]): 32.2 ×10⁻² umol/ml; MFC99.5 (Candida albicans [32]): 30.4 ×10⁻² umol/ml
2 | CNc1nc(C)c(C2=NN(c3ccccc3)C(c3ccccc3)C2)s1 (stereo not given) | 115 (≈ 40.1 µg/mL) | 230 (≈ 80.1 µg/mL) | 115 (≈ 40.1 µg/mL) | 57 (≈ 19.9 µg/mL) | 20.1 | 28.7 | 23 | 11.5 | 144 (≈ 50.2 µg/mL) | 172 (≈ 59.9 µg/mL) | 172 (≈ 59.9 µg/mL) | 144 (≈ 50.2 µg/mL) | 45.9 | 28.7 | 20.1 | 20.1 | 143 (≈ 49.8 µg/mL) | 143 (≈ 49.8 µg/mL) | 143 (≈ 49.8 µg/mL) | 143 (≈ 49.8 µg/mL) | MFC99.5 (Aspergillus ochraceus [21]): 17.2 ×10⁻² umol/ml; MFC99.5 (Aspergillus versicolor [22]): 23 ×10⁻² umol/ml; MFC99.5 (Aspergillus niger [23]): 28.7 ×10⁻² umol/ml; MFC99.5 (Aspergillus fumigatus [24]): 23 ×10⁻² umol/ml; MIC (Trichoderma viride [25]): 287 µM (≈ 100 µg/mL); MIC (Penicillium ochrochloron [26]): 143 µM (≈ 49.8 µg/mL); MIC (Talaromyces funiculosus [27]): 287 µM (≈ 100 µg/mL); MIC (Candida albicans [28]): 172 µM (≈ 59.9 µg/mL); MFC99.5 (Trichoderma viride [29]): 40.2 ×10⁻² umol/ml; MFC99.5 (Penicillium ochrochloron [30]): 28.7 ×10⁻² umol/ml; MFC99.5 (Talaromyces funiculosus [31]): 40.2 ×10⁻² umol/ml; MFC99.5 (Candida albicans [32]): 23 ×10⁻² umol/ml
3 | CNc1nc(C)c(C2=NN(c3ccccc3)C(c3ccc(OC)cc3)C2)s1 (stereo not given) | 106 (≈ 40.1 µg/mL) | 158 (≈ 59.8 µg/mL) | 106 (≈ 40.1 µg/mL) | 53 (≈ 20.1 µg/mL) | 15.8 | 26.4 | 15.8 | 10.6 | 158 (≈ 59.8 µg/mL) | 185 (≈ 70 µg/mL) | 185 (≈ 70 µg/mL) | 132 (≈ 50 µg/mL) | 26.4 | 26.4 | 21.1 | 18.5 | 132 (≈ 50 µg/mL) | 132 (≈ 50 µg/mL) | 132 (≈ 50 µg/mL) | 264 (≈ 99.9 µg/mL) | MFC99.5 (Aspergillus ochraceus [21]): 13.2 ×10⁻² umol/ml; MFC99.5 (Aspergillus versicolor [22]): 21.1 ×10⁻² umol/ml; MFC99.5 (Aspergillus niger [23]): 26.4 ×10⁻² umol/ml; MFC99.5 (Aspergillus fumigatus [24]): 37 ×10⁻² umol/ml; MIC (Trichoderma viride [25]): 132 µM (≈ 50 µg/mL); MIC (Penicillium ochrochloron [26]): 264 µM (≈ 99.9 µg/mL); MIC (Talaromyces funiculosus [27]): 264 µM (≈ 99.9 µg/mL); MIC (Candida albicans [28]): 264 µM (≈ 99.9 µg/mL); MFC99.5 (Trichoderma viride [29]): 13.2 ×10⁻² umol/ml; MFC99.5 (Penicillium ochrochloron [30]): 37 ×10⁻² umol/ml; MFC99.5 (Talaromyces funiculosus [31]): 37 ×10⁻² umol/ml; MFC99.5 (Candida albicans [32]): 37 ×10⁻² umol/ml
4 | CNc1nc(C)c(C2=NN(c3ccccc3)C(c3ccc([N+](=O)[O-])cc3)C2)s1 (stereo not given) | 102 (≈ 40.1 µg/mL) | 203 (≈ 79.9 µg/mL) | 127 (≈ 50 µg/mL) | 76 (≈ 29.9 µg/mL) | 20.3 | 25.4 | 20.3 | 10.2 | 203 (≈ 79.9 µg/mL) | 152 (≈ 59.8 µg/mL) | 178 (≈ 70 µg/mL) | 127 (≈ 50 µg/mL) | 25.4 | 25.4 | 20.3 | 20.3 | 127 (≈ 50 µg/mL) | 254 (≈ 99.9 µg/mL) | 254 (≈ 99.9 µg/mL) | 127 (≈ 50 µg/mL) | MFC99.5 (Aspergillus ochraceus [21]): 20.3 ×10⁻² umol/ml; MFC99.5 (Aspergillus versicolor [22]): 32.2 ×10⁻² umol/ml; MFC99.5 (Aspergillus niger [23]): 32.2 ×10⁻² umol/ml; MFC99.5 (Aspergillus fumigatus [24]): 15.2 ×10⁻² umol/ml; MIC (Trichoderma viride [25]): 127 µM (≈ 50 µg/mL); MIC (Penicillium ochrochloron [26]): 254 µM (≈ 99.9 µg/mL); MIC (Talaromyces funiculosus [27]): 254 µM (≈ 99.9 µg/mL); MIC (Candida albicans [28]): 305 µM (≈ 120 µg/mL); MFC99.5 (Trichoderma viride [29]): 15.2 ×10⁻² umol/ml; MFC99.5 (Penicillium ochrochloron [30]): 32.2 ×10⁻² umol/ml; MFC99.5 (Talaromyces funiculosus [31]): 32.2 ×10⁻² umol/ml; MFC99.5 (Candida albicans [32]): 40.6 ×10⁻² umol/ml
5 | CNc1nc(C)c(C2=NN(c3ccccc3)C(c3ccc(Cl)cc3)C2)s1 (stereo not given) | 105 (≈ 40.2 µg/mL) | 157 (≈ 60.1 µg/mL) | 105 (≈ 40.2 µg/mL) | 52 (≈ 19.9 µg/mL) | 21 | 31.4 | 21 | 10.5 | 152 (≈ 58.2 µg/mL) | 152 (≈ 58.2 µg/mL) | 183 (≈ 70.1 µg/mL) | 131 (≈ 50.2 µg/mL) | 31.4 | 18.3 | 21 | 18.3 | 131 (≈ 50.2 µg/mL) | 131 (≈ 50.2 µg/mL) | 131 (≈ 50.2 µg/mL) | 131 (≈ 50.2 µg/mL) | MFC99.5 (Aspergillus ochraceus [21]): 15.7 ×10⁻² umol/ml; MFC99.5 (Aspergillus versicolor [22]): 21 ×10⁻² umol/ml; MFC99.5 (Aspergillus niger [23]): 26.2 ×10⁻² umol/ml; MFC99.5 (Aspergillus fumigatus [24]): 26.2 ×10⁻² umol/ml; MIC (Trichoderma viride [25]): 131 µM (≈ 50.2 µg/mL); MIC (Penicillium ochrochloron [26]): 131 µM (≈ 50.2 µg/mL); MIC (Talaromyces funiculosus [27]): 262 µM (≈ 100 µg/mL); MIC (Candida albicans [28]): 157 µM (≈ 60.1 µg/mL); MFC99.5 (Trichoderma viride [29]): 21 ×10⁻² umol/ml; MFC99.5 (Penicillium ochrochloron [30]): 15.7 ×10⁻² umol/ml; MFC99.5 (Talaromyces funiculosus [31]): 36.7 ×10⁻² umol/ml; MFC99.5 (Candida albicans [32]): 26.2 ×10⁻² umol/ml

From ChEMBL document CHEMBL3585344, “Thiazole-based aminopyrimidines and N-phenylpyrazolines as potent antimicrobial agents: synthesis and biological evaluation” (2014)
